Results taken from patent US20130090494A1, “TETRAKIS[BIS(DIHYDROXYPHOSPHORYL)METHYL]CALIX[4]ARENE OR ITS SODIUM SALT THEREOF AS FIBRIN POLYMERIZATION INHIBITORS” (priority 2010, published 2013).
Entries after “also recorded” stand apart in the source; their conditions may differ. Where a name gives a salt, the structure may show the parent alone.

Assays:
fibrin polymerization = target: T1, fibrin polymerization (Homo sapiens, UniProt P02671+P02675+P02679); test: Turbidity analysis of fibrin polymerization (system not specified); type: biochemical; conditions: applicant's own experiments
T1 sequence (P02671 20-644 isoform P02671-2 limits assumed): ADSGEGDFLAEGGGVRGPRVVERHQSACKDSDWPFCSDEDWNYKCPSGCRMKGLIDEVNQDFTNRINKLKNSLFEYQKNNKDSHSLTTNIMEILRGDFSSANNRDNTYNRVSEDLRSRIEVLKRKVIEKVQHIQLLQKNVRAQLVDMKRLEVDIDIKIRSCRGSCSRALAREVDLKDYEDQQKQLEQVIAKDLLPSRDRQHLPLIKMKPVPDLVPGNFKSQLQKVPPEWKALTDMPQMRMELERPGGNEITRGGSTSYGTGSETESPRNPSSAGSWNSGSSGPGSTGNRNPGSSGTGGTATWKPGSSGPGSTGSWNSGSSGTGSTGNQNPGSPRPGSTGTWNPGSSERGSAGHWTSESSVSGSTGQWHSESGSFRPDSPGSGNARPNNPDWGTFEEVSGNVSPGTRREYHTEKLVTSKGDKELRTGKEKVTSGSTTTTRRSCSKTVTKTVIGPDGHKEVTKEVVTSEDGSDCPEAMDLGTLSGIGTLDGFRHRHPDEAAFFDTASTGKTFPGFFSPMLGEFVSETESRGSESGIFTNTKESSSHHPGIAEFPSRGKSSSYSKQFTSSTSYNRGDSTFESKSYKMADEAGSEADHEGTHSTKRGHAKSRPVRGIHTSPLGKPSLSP
T1 sequence (P02675 45-491 limits assumed): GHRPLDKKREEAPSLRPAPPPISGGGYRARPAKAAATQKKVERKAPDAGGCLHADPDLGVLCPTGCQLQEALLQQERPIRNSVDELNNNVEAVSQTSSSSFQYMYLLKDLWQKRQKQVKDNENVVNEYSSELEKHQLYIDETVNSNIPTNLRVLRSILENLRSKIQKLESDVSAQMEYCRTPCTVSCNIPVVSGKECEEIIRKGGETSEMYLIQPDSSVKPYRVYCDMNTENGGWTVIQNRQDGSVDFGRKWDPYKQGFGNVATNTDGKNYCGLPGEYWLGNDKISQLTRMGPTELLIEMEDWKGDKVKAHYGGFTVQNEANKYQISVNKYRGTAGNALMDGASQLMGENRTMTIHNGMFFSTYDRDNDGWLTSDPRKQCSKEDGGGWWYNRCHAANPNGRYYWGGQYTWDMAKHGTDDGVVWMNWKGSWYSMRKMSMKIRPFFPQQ
T1 sequence (P02679 27-437 isoform P02679-2 limits assumed): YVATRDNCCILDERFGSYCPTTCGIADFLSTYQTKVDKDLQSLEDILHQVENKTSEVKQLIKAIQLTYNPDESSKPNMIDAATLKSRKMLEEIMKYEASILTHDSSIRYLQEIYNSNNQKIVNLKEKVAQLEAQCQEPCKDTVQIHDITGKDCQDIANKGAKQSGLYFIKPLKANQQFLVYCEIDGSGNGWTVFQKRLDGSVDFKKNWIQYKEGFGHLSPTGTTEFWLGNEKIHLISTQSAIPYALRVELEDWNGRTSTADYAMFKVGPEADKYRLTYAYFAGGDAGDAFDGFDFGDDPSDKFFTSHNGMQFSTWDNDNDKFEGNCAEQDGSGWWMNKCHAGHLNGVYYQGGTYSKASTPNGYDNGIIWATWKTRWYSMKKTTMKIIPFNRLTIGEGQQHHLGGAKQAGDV
Source text: Furthermore, because of electro neutrality of the declared calixarene-145 molecule, it may be more suitable for injection to a living organism as an inhibitor of fibrin polymerization and the process of blood clotting, as well.

[1] = target: T2, desAABB fibrin monomer polymerization (Homo sapiens, UniProt P02671+P02675+P02679); test: Turbidity analysis of desAABB fibrin monomer polymerization; type: biochemical; conditions: for final (maximum) turbidity of fibrin clot (Δh) / lag-time (τ) / maximum rate of fibrin polymerization (Vmax): desAABB fibrin polymerization medium, 0.5 μM, FIG. 2
T2 construct: DesAABB fibrin monomer was prepared in 0.02 M acetic acid was prepared during reaction fibrinogen+thrombin; The fibrinogen was prepared by sodium sulfate precipitation from human plasma; from tissue; host or cells: human blood plasma; fibrinogen converted with thrombin
T2 sequence (P02671 36-866 limits assumed): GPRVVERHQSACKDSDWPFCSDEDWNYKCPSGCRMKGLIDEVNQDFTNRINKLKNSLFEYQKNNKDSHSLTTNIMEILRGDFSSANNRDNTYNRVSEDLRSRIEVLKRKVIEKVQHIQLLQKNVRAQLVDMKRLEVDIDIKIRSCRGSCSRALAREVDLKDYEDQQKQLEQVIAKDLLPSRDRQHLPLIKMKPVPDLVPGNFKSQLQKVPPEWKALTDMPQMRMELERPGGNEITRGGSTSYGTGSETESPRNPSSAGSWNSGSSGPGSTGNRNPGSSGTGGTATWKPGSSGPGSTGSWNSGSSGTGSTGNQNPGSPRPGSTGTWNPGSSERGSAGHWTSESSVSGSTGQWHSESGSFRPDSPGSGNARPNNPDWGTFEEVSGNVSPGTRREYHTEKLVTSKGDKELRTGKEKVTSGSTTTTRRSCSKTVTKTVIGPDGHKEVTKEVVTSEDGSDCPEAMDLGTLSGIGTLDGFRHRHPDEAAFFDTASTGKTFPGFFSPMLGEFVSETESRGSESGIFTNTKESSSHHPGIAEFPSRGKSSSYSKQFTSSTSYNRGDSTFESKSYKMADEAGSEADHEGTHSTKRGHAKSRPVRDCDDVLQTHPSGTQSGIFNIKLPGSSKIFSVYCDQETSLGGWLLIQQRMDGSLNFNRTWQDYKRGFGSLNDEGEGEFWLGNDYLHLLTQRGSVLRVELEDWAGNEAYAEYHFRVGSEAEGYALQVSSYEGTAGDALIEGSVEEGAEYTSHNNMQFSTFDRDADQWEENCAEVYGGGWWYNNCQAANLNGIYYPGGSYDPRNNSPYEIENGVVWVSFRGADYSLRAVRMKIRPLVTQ
T2 sequence (P02675 45-491 limits assumed): T1 sequence (P02675 45-491 limits assumed)
T2 sequence (P02679 27-453): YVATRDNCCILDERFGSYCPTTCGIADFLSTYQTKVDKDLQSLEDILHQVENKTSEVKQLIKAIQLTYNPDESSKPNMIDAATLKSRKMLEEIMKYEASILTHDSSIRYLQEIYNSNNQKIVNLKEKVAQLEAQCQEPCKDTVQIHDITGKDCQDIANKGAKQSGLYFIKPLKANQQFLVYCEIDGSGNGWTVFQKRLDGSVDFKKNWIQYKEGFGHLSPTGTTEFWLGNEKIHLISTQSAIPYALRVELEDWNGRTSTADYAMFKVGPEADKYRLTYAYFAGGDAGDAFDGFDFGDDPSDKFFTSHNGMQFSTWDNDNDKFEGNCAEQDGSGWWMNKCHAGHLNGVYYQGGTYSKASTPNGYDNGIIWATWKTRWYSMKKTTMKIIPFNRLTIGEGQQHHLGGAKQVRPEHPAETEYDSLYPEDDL
Procedure: (§1) The fibrin polymerization by the action of thrombin on fibrinogen consists of two reactions: 1) thrombin-catalyzed conversion of fibrinogen to fibrin and 2) polymerization of the fibrin monomer to form three-dimensional network, which is the framework of thrombus.
(§2) The turbidity analysis of desAABB fibrin polymerization and of fibrin polymerization in the fibrinogen+thrombin reaction in the present and the absent of declared calixarenes C-192 and C-145
(§3) The fibrinogen was prepared by sodium sulfate precipitation from human plasma. DesAABB fibrin monomer was prepared in 0.02 M acetic acid was prepared during reaction fibrinogen+thrombin [10]. Polymerization of fibrin desAA and desAABB was studied in the polymerization medium containing at a low concentration thrombin at pH 5.3 [7]. In the experience of the system fibrinogen+thrombin in polymerization medium to add declared calixarene C-192 at a concentration of 0.5 mM.
The declared calixarene C-192 and C-145 was added on the desAABB fibrin polymerization medium at a concentration of 0.5 μM.

mice = test: Acute toxicity in healthy adult mice; conditions: mouse, in vivo
[2] = Acute toxicity in healthy adult mice; conditions: mouse, in vivo, oral; healthy adult mice, perorally
[3] = target: T3, fibrin polymerization in the thrombin-fibrinogen reaction (Homo sapiens, UniProt P02671+P02675+P02679); test: Turbidity analysis of fibrin polymerization in the thrombin-fibrinogen reaction; type: biochemical
T3 construct: The fibrinogen was prepared by sodium sulfate precipitation from human plasma; from tissue; host or cells: human blood plasma
T3 sequence (P02671 20-644 isoform P02671-2 limits assumed): T1 sequence (P02671 20-644 isoform P02671-2 limits assumed)
T3 sequence (P02675 45-491 limits assumed): T1 sequence (P02675 45-491 limits assumed)
T3 sequence (P02679 27-437 isoform P02679-2 limits assumed): T1 sequence (P02679 27-437 isoform P02679-2 limits assumed)
Procedure: as §1, §2, §3

[4] = tested on: human blood plasma coagulation (outer pathway); test: Prothrombin time (PT) of human blood plasma
Procedure: (§4) The measuring of prothrombin time (PT) and activated partial thromboplastin time (APTT) for coagulation of human plasma in the presence of calixarene C-192.
(§5) The effects of calixarene C-192 on the coagulation of human blood plasma were studied using a coagulometer (CT 2410 ‘Solar’, Belarus).
Using coagulometer measured the prothrombin ratio, which is calculated using the formula: […]
where: PR—prothrombin ratio; PTe—prothrombin time in the investigating blood plasma; PTc—prothrombin time in the control blood plasma.
The prothrombin time were calculated using the method. The dissolved calixarene C-192 at concentration of 50 μM was added to cuvette in the experience. The prothrombin ratio calculating by formula (I) equals 1.6.

[5] = tested on: human blood plasma coagulation (internal pathway); test: Activated partial thromboplastin time (APTT) of human blood plasma
Source text: as §4, §5
The activated partial thromboplastin time calculated by the method. In the APTT-test comparing the formation of the fibrin clot in control samples: pure blood plasma specimens and blood plasma, in which the solute of calixarene C-192 at concentration of 50 μM. The prothrombin ratio Calculated by formula (1) equals 5.4.

[6] = target: T4, fibrin protofibril formation (Homo sapiens, UniProt P02671+P02675+P02679); test: Transmission electron microscopy of fibrin formed in the thrombin-fibrinogen reaction; type: biochemical; conditions: 50000 magnification, FIG. 4
T4 construct: The fibrinogen was prepared by sodium sulfate precipitation from human plasma; from tissue; host or cells: human blood plasma
T4 sequence (P02671 20-644 isoform P02671-2 limits assumed): T1 sequence (P02671 20-644 isoform P02671-2 limits assumed)
T4 sequence (P02675 45-491 limits assumed): T1 sequence (P02675 45-491 limits assumed)
T4 sequence (P02679 27-437 isoform P02679-2 limits assumed): T1 sequence (P02679 27-437 isoform P02679-2 limits assumed)
Source text: The study of desAABB fibrin polymerization in the thrombin-fibrinogen reaction by transmission electron microscopy in the present and the absent of declared calixarenes C-192 and C-145
The analysis of the electron micrographs of the fibrin formed in the fibrinogen+thrombin reaction at different time intervals after the polymerization process beginning in the absence of calixarene C-192 (FIG. 4, A and B) and in the presence of calixarene C-192 (FIG. 4, C, D).
The samples of polymerizing fibrin produced in the thrombin-fibrinogen reaction in the absence or the presence of calixarene C-192 were taken out of the reaction medium at various times, placed on a carbon-coated grid for 2 min and then stained with 1% (w/v) uranyl acetate for 1 min. Transmission electron microscopy was performed with an H-600 electron microscope (Hitachi, Tokyo, Japan). Electron micrographs were obtained at −50 000 magnification.

[7] = fibrinogen+thrombin system, C-192 at 0.5 mM, FIG. 1
[8] = normal human blood plasma, FIG. 3

SMILES | IC50 (fibrin polymerization) | final (maximum) turbidity of fibrin clot (Δh) ([1]; listed as C-145) | lag-time (τ) ([1]; listed as C-145) | maximum rate of fibrin polymerization (Vmax) ([1]; listed as C-145) | toxicity class (mice) | LD50 [2] | final turbidity of fibrin clot (Δh) [3, 7] | lag-time (τ) [3, 7] | maximum rate of fibrin polymerization (Vmax) [3, 7] | IC50 ([3]; turbidity analysis, thrombin-fibrinogen reaction) | concentration that doubles the prothrombin time (PT) [4, 8] | prothrombin ratio (PR=PTe/PTc) ([4]; prothrombin time, human plasma, 50 μM) | prothrombin ratio calculated by formula (1) in the APTT-test ([5]; APTT-test, human plasma, 50 μM) | concentration that doubles the APTT [5, 8] | effect on fibrin polymerization stage seen by electron microscopy [6] | final (maximum) turbidity of fibrin clot (Δh) ([1]; listed as C-192) | lag-time (τ) ([1]; listed as C-192) | maximum rate of fibrin polymerization (Vmax) ([1]; listed as C-192) | IC50 ([1]; fibrin monomer polymerization)
O=P(O)(O)C(c1cc2c(O)c(c1)Cc1cc(C(P(=O)(O)O)P(=O)(O)O)cc(c1O)Cc1cc(C(P(=O)(O)O)P(=O)(O)O)cc(c1O)Cc1cc(C(P(=O)(O)O)P(=O)(O)O)cc(c1O)C2)P(=O)(O)O [calixarene C-145, octasodium salt of 5,11,17,23-tetrakis [bis](dihydroxyphosphoryl)methyl calix[4]arene] | 2500 nM | significantly decreased | increases; also recorded: increased significantly | significantly decreased |  |  |  |  |  |  |  |  |  |  |  |  |  |  | 
O=P(O)(O)C(c1cc2c(O)c(c1)Cc1cc(C(P(=O)(O)O)P(=O)(O)O)cc(c1O)Cc1cc(C(P(=O)(O)O)P(=O)(O)O)cc(c1O)Cc1cc(C(P(=O)(O)O)P(=O)(O)O)cc(c1O)C2)P(=O)(O)O [calixarene C-192, 5,11,17,23-tetrakis[bis(dihydroxyphosphoryl)methyl]calix[4]arene] |  |  |  |  | median toxic compound | 780 mg/kg | decreased; also recorded: reduced | increases; also recorded: significantly increased | significantly decreased; also recorded: greatly reduced | 500 nM | 7.0·10^−5 M | 1.6 | 5.4 | 1.7·10^−5 M | inhibits the first stage of fibrin polymerization protofibril formation; also recorded: inhibits the first stage of fibrin polymerization protofibril building | decreased | increased significantly | decreased | 1000 nM
